Where two headings read alike, the source gives them in different places.
Experiments:
S. aureus strain UAMS-1 = type: cell-based, Staphylococcus aureus; conditions: 1×MIC, laser microbial growth monitor over 40 hours
Method: Spontaneous resistance to the indicated test agent(s) was measured for P. aeruginosa strain PA01 and S. aureus strain UAMS-1 using two liquid culture approaches. […] Growth was measured using the BacterioScan s216Dx laser microbial growth monitor, with optical measurements taken every 3 minutes over 40 hours. Following 40 hours, samples were plated for to measure viable colony forming units and re-tested for drug susceptibility.
To determine if these colonies represented untreated cells vs. resistant cells, 8 individual colonies from each treatment condition were randomly selected and tested for MICs.
Using an automated laser microbial growth monitor, the optical profiles of these cultures were measured continuously over time. […] Again 8 colonies were selected at random from each treatment group.

S. aureus UAMS-1 = assay: Selleck library screen in presence of sub-inhibitory polymyxin B/trimethoprim; type: cell-based, Staphylococcus aureus; design: key: Growth (+); no growth (−); conditions: for S. aureus growth, 5 μM: drug 5 μM in presence of 1.2 μg ml^−1 polymyxin B/trimethoprim; for S. aureus growth, 50 μM: drug 50 μM in presence of 1.2 μg ml^−1 polymyxin B/trimethoprim
Method: To identify agents that potentiate the antimicrobial activity of polymyxin B/trimethoprim we first determined the highest concentration of the polymyxin B/trimethoprim combination that allowed growth of P. aeruginosa strain PAO1 and S. aureus strain UAMS-1.
For Selleck library screening, individual wells of 96-well microtiter plates containing 88 μl of fresh media were inoculated with approximately 10^5 CFUs of P. aeruginosa strain PAO1 or S. aureus UAMS-1. Next, 2 μl of polymyxin B/trimethoprim was added to a final concentration of 0.2 μg ml^−1 or 1.25 μg ml^−1 for PA01 and UAMS-1, respectively. Library members were then added at either 5 μM or 50 μM final concentration. Plates were incubated at 37° C. for 16 hours and hits were identified as wells with no visible growth.
To do so, 10^5 CFUs of S. aureus strain UAMS-1 were inoculated in individual wells of a microtiter plate supplemented with 1.2 μg ml^−1 of polymyxin B/trimethoprim, (0.25×MIC). Library members were added at low (5 μM) or high (50 μM) concentrations and then scored for agents that inhibited growth following overnight incubation. Such agents were expected to represent compounds that display antimicrobial activity on their own and/or that potentiate the antimicrobial activity of polymyxin B/trimethoprim.

[1] = test system: planktonic S. aureus cells; assay: Antimicrobial kill curves; type: cell-based, Staphylococcus aureus; conditions: 2× MIC
Method: Overnight cultures of the indicated organism were used to inoculate (1:100 dilution) 100 ml of fresh media and grown to mid-exponential phase. […] Aliquots were taken at 1, 2, 3, 4, and 24 hours, serial diluted and plated for colony forming units.

P. aeruginosa biofilm = test system: P. aeruginosa biofilm; design: key: Killing (+) of established biofilms; conditions: established biofilms; adenylate kinase reporter; Blanchard et al., 2016; cited from earlier work
P. aeruginosa = assay: MIC of clinical P. aeruginosa ocular isolates (antibiotic susceptibility profiles); type: cell-based, Pseudomonas aeruginosa; conditions: Pseudomonas aeruginosa, read-out: Minimum Inhibitory Concentration
Excerpt: A series of genotyping and biological assays were used as a preliminary means to evaluate the clonality of clinical P. aeruginosa isolates collected, as follows. Genomic DNA was purified from each isolate using Qiagen DNeasy kits (Hilden, Germany) and used as a template for polymerase chain reactions to detect the presence of the virulence factors exoS, exoY, exoU, exoT, and perV using previously published primers (Table 1). See Allewelt M, Coleman F T, Grout M, Priebe G P, Pier G B. Acquisition of expression of the Pseudomonas aeruginosa ExoU cytotoxin leads to increased bacterial virulence in a murine model of acute pneumonia and systemic spread. Infection and immunity 2000; 68:3998-4004, Lomholt J A, Poulsen K, Kilian M. Epidemic population structure of Pseudomonas aeruginosa: evidence for a clone that is pathogenic to the eye and that has a distinct combination of virulence factors. Infection and immunity 2001; 69, and Ledbetter E C, Mun J J, Kowbel D, Fleiszig S M. Pathogenic phenotype and genotype of Pseudomonas aeruginosa isolates from spontaneous canine ocular infections. Investigative ophthalmology & visual science 2009; 50. […] See Institute C. Performance Standards for Antimicrobial Susceptibility Testing: Twenty-fifth Informational Supplement. Each isolate's ability to form biofilms was quantified. To do so, wells of a polystyrene plate containing 72-hour established biofilms were washed with 0.8% NaCl to remove non adherent cells and stained with crystal violet. To quantify biofilm staining, plates were washed 3 times with H2O, stain was suspended in 30% glacial acetic acid and the optical density (OD600nm) of each well was determined using an automated plate reader, as previously described. See Jacobs A C, Blanchard C E, Catherman S C, Dunman P M, Murata Y. An ribonuclease T2 family protein modulates Acinetobacter baumannii abiotic surface colonization. PloS one 2014; 9.

Structure (SMILES) | start of outgrowth of treated culture (S. aureus strain UAMS-1) | S. aureus growth, 5 μM (S. aureus UAMS-1) | S. aureus growth, 50 μM (S. aureus UAMS-1) | reduction in CFU at 24 hours [1] | P. aeruginosa biofilm AK Signal (P. aeruginosa biofilm) | MIC (P. aeruginosa; P. aeruginosa ocular isolate RW01 (cornea)) | MIC (P. aeruginosa; P. aeruginosa ocular isolate RW02 (cornea)) | MIC (P. aeruginosa; P. aeruginosa ocular isolate RW03 (cornea)) | MIC (P. aeruginosa; P. aeruginosa ocular isolate RW04 (conjunctiva)) | MIC (P. aeruginosa; P. aeruginosa ocular isolate RW05 (cornea)) | MIC (P. aeruginosa; P. aeruginosa ocular isolate RW06 (cornea)) | MIC (P. aeruginosa; P. aeruginosa ocular isolate RW07 (cornea))
CO[C@H]1/C=C/O[C@@]2(C)Oc3c(C)c(O)c4c(O)c(c(/C=N/N5CCN(C)CC5)c(O)c4c3C2=O)NC(=O)/C(C)=C\C=C\[C@H](C)[C@H](O)[C@@H](C)[C@@H](O)[C@@H](C)[C@H](OC(C)=O)[C@@H]1C [Rifampicin, rifampicin] | 8 h | − | − |  |  |  |  |  |  |  |  | 
NC[C@H]1O[C@H](O[C@H]2[C@H](O)[C@@H](O[C@H]3O[C@H](CO)[C@@H](O)[C@H](N)[C@H]3O)[C@H](N)C[C@@H]2N)[C@H](N)C[C@@H]1O [Tobramycin, tobramycin] |  | + | − | 6 log | + | 0.24 µg/mL | 0.24 µg/mL | 0.24 µg/mL | 0.48 µg/mL | 0.48 µg/mL | 0.24 µg/mL | 0.24 µg/mL
